According to paper PMC9979163, “Discovery and functional characterization of N-(thiazol-2-yl)-benzamide analogs as the first class of selective antagonists of the Zinc-Activated Channel (ZAC)” (Biochemical pharmacology, 2021):

Key:
[1] = molecular target: hα3β4 nAChR (Homo sapiens, UniProt P30926+P32297); experiment: TEVC selectivity, hα3β4 nAChR in oocytes; format: cell-based; conditions: 30 μM, 30 s preapplication, 3 μM (S)-nicotine (EC20–EC40)
Procedure: (§1) The cDNAs for the various WT and chimeric CLR subunits were linearized and subsequently transcribed and capped mMessage mMachine T7 RNA transcription kit (Ambion, Waltham, MA). […]
(§2) On the day of experiment, all compound dilutions were prepared in a saline solution [115 mM NaCl, 2.5 mM KCl, 10 mM MOPS (pH 7.5), 1.8 mM CaCl2, 0.1 mM MgCl2] and pH adjusted to 7.5 (if needed). […] Currents were recorded using pCLAMP 10 (Molecular Devices, Sunnyvale, CA). […]
(§3) In all recordings, the compounds or compound combinations were applied in the bath until the peak current decayed to a steady state (up to 30 sec at the most). […] The functional properties of the modulators at the CLRs were determined by pre-application of the modulator to the perfusate 30 sec and followed by co-application of the modulator and the agonist to the perfusate. […]
(§4) Data analysis of the results from the TEVC recordings were performed using Clampfit software version 10.5 (Molecular Devices, Crawley, UK) and GraphPad Prism version 7.0c (GraphPad Software, Inc. La Jolla, CA). […] I-V relationships were analyzed by fitting the curves with a third order polynomial model. […]

[2] = molecular target: T1, hα1 GlyR (Homo sapiens, UniProt P23415); experiment: TEVC selectivity, hα1 GlyR in oocytes; format: cell-based; conditions: 30 μM, 30 s preapplication, 100 μM glycine (EC20–EC40)
T1 sequence (P23415 29-457): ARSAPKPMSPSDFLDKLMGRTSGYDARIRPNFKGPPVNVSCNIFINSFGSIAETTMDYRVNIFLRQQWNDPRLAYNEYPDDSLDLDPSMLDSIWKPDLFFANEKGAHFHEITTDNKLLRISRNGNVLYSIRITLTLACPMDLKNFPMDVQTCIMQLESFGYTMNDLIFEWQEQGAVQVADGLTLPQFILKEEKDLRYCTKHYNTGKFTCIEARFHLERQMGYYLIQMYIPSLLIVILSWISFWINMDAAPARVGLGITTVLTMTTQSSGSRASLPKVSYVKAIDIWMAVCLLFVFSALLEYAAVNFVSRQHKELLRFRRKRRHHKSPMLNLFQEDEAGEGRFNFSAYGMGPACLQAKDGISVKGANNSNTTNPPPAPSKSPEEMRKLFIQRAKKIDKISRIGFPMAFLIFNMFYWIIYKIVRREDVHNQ
Procedure: as §1, §2, §3, §4

[3] = molecular target: T2, ZAC (Homo sapiens, UniProt Q401N2); experiment: TEVC recordings, H+-evoked currents at ZAC expressed in Xenopus oocytes; format: cell-based
T2 sequence (Q401N2 26-412): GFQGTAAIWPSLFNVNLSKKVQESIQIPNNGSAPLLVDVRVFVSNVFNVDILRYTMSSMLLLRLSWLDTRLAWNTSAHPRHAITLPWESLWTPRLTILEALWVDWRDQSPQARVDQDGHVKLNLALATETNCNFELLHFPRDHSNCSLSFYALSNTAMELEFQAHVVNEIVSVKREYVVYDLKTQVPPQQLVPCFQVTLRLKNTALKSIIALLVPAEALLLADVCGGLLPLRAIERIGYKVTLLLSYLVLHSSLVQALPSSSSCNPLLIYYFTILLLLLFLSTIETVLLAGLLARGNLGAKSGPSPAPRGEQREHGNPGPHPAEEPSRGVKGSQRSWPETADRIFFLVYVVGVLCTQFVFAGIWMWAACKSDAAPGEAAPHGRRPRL
Procedure: as §1, §2, §3, §4

[4] = test system: m5-HT3A/ZAC; experiment: TEVC, chimeric m5-HT3A/ZAC receptor in oocytes; format: cell-based, mouse/human; conditions: 30 μM, 0.3 μM 5-HT
Procedure: as §1, §2, §3, §4

[5] = Solubility (remark); format: physicochemical

Sequence of hα3β4 nAChR (P32297 32-505): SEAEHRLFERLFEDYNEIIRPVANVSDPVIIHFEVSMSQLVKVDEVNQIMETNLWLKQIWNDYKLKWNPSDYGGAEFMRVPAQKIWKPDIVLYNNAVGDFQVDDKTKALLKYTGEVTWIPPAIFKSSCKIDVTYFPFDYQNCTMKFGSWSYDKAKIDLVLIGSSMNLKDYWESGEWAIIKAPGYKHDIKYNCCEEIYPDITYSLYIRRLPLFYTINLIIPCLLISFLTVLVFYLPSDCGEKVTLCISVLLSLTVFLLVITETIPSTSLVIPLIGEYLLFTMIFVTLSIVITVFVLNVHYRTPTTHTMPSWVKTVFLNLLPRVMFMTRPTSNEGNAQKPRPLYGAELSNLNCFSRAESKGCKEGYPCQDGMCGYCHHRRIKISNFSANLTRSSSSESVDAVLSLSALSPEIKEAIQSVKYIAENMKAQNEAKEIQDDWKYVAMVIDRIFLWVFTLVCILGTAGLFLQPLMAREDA
Sequence of hα3β4 nAChR (P30926 22-498): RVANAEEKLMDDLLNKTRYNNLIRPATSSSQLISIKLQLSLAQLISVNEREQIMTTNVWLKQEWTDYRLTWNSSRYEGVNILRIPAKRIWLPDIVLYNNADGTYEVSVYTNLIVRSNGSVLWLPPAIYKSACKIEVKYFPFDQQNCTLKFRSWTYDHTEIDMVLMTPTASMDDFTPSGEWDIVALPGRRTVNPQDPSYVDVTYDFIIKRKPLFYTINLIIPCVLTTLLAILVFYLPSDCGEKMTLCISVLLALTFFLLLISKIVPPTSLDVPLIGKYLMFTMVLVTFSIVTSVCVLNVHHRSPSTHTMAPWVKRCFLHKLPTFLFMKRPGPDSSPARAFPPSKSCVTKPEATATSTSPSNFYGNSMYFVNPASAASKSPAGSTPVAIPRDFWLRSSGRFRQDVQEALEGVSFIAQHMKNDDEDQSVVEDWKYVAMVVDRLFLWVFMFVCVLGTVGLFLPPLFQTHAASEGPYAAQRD

**Q.** Which “Agonist, antagonist or PAM activity” value [1] does the source give for CC(C)(C)c1csc(NC(=O)c2cccc(F)c2)n1 [5a, N-(4-(tert-butyl)thiazol-2-yl)-3-fluorobenzamide] here?
**A.** The value was “did not display significant activity”.

**Q.** And the “Agonist, antagonist or PAM activity” value [2]?
**A.** Its value is “did not display significant activity”.

**Q.** What about the “Voltage dependence of ZAC inhibition” value ([3]; 10 μM, H+ (pH 6.5)-evoked currents, −60 mV and +60 mV) of the same compound?
**A.** Its value is “voltage-independent”.

**Q.** And the IC50 ([3]; H+ (pH 6.0) as agonist, TEVC, steady-state current, n = 6)?
**A.** The IC50 was 8.5 µM.

**Q.** What about the “Modulation of 5-HT-induced response” value [4] of the same compound?
**A.** The value was “complete inhibition”.

**Q.** And the “Solubility (in words)” value [5]?
**A.** The value was “limited solubility”.
